Test results as given in patent US20230203098A1, “HUMAN TRANSFERRIN RECEPTOR BINDING PEPTIDE” (priority 2020, published 2023).
Like-named read-outs stand apart in the source and are kept apart here. Where a SMILES comes first, the peptide text is derived from it. Bridges are numbered along the chain shown (N, C = ends). [ ]: non-standard residue; d: D form. The star is where a group is joined. X2 = O=C(O)c1cc(C(=O)*)ccc1-c1c2ccc(=O)cc-2oc2cc(O)ccc12; PEG12 = NCCOCCOCCOCCOCCOCCOCCOCCOCCOCCOCCOCCOCCC(=O)O; Phe(3,4-(OMe)2) = COc1ccc(C[C@H](N)C(=O)O)cc1OC; NMePhe(3-Cl) = CN[C@@H](Cc1cccc(Cl)c1)C(=O)O; NMeW = CN[C@@H](Cc1c[nH]c2ccccc12)C(=O)O; Lys(N3) = [N-]=[N+]=NCCCC[C@H](N)C(=O)O; NMeY = CN[C@@H](Cc1ccc(O)cc1)C(=O)O; NMeF = CN[C@@H](Cc1ccccc1)C(=O)O

Target: transferrin receptor (hTfR) (Homo sapiens, UniProt P02786)
Assay: Intermolecular interaction evaluation test between transferrin receptor (hTfR) and peptide by surface plasmon resonance (SPR)
Assay type: binding
Summary of the method: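 Receptor was Ni-captured and EDC/NHS-fixed on an NTA chip; running buffer HEPES pH 8.0 with NaCl, Tween 20, BSA and 1.0% DMSO.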

[1] = surface plasmon resonance, peptide vs hTfR, read-out: KD value, hTfR binding by SPR (class symbol)
[2] = SPR, peptides, linker-added peptides and FITC conjugates, Patent ID 203-230, read-out: KD
[3] = SPR, hTfR No. 894 variants with PEG12c linker (Table 2), read-out: KD

transferrin receptor (hTfR), sequence (P02786 whole entry): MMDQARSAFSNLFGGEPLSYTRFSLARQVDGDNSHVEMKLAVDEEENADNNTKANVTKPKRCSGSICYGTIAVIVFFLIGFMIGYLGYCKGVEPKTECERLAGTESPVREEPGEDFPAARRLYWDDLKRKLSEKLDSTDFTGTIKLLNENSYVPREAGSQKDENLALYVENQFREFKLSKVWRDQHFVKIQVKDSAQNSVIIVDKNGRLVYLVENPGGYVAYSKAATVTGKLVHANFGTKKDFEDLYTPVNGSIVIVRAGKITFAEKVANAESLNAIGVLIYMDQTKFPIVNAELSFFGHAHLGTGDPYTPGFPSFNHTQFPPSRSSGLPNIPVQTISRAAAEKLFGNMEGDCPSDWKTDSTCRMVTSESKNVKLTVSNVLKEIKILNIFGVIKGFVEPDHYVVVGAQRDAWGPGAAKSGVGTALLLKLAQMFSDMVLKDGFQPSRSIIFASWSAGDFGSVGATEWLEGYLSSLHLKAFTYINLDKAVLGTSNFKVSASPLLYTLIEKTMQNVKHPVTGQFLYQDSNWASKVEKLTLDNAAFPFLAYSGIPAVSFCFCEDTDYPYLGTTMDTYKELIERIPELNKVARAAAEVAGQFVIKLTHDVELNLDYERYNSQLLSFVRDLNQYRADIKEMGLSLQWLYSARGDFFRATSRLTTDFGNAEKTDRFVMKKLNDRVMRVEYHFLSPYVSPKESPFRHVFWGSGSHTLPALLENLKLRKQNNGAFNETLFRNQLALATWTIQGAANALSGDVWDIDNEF

Which Kd (binding to hTfR by SPR, Table 2 peptides, read-out: KD value (SPR) class) does the source give for `CC[C@H](C)[C@@H]1NC(=O)[C@H](Cc2ccc(O)cc2)NC(=O)[C@H](Cc2ccc(O)cc2)NC(=O)[C@H](CC(N)=O)NC(=O)[C@H](Cc2c[nH]c3ccccc23)NC(=O)[C@H](C(C)C)NC(=O)[C@H](Cc2ccccc2)NC(=O)[C@H](C(C)C)NC(=O)[C@H](C)NC(=O)CSC[C@@H](C(N)=O)NC(=O)[C@H](Cc2ccc(O)cc2)N(C)C(=O)[C@H](Cc2ccc(O)cc2)NC(=O)[C@H](CCCNC(=N)N)NC(=O)[C@H](CCCCN)NC(=O)[C@H]([C@@H](C)CC)NC1=O` [compound 255] here?
Its Kd is < 1 nM.

How did the Kd [1] turn out when `CC[C@H](C)[C@@H]1NC(=O)[C@H](Cc2ccc(OC)nc2)NC(=O)[C@H](Cc2ccc(O)cc2)NC(=O)[C@H](CC(N)=O)NC(=O)[C@H](Cc2c[nH]c3ccccc23)N(C)C(=O)[C@H](C(C)C)NC(=O)[C@H](Cc2cccc(Cl)c2)N(C)C(=O)[C@H](C(C)C)NC(=O)[C@H](C)NC(=O)CSC[C@@H](C(N)=O)NC(=O)[C@H](Cc2ccc(O)cc2)N(C)C(=O)[C@H](Cc2ccccc2)NC(=O)[C@@H](CCCNC(=N)N)NC(=O)C(C)(C)NC(=O)[C@H]([C@@H](C)CC)NC1=O` [compound 323] was run?
Its Kd is 1 to 100 nM.

For `CC[C@H](C)[C@@H]1NC(=O)[C@H](Cc2ccc(OCC(=O)O)cc2)NC(=O)[C@H](Cc2ccc(O)cc2)NC(=O)[C@H](CC(N)=O)NC(=O)[C@H](Cc2c[nH]c3ccccc23)N(C)C(=O)[C@H](C(C)C)NC(=O)[C@H](Cc2cccc(Cl)c2)N(C)C(=O)[C@H](C(C)C)NC(=O)[C@H](C)NC(=O)CSC[C@@H](C(N)=O)NC(=O)[C@H](Cc2ccc(O)cc2)N(C)C(=O)[C@H](Cc2ccccc2)NC(=O)[C@@H](CCCNC(=N)N)NC(=O)C(C)(C)NC(=O)[C@H]([C@@H](C)CC)NC1=O` [compound 324], which Kd [1] is on record?
Its Kd is > 1000 nM.

How did the Kd [1] turn out when `CC[C@H](C)[C@@H]1NC(=O)[C@H](Cc2ccc(OC)c(OC)c2)NC(=O)[C@H](Cc2ccc(O)cc2)NC(=O)[C@H](CC(N)=O)NC(=O)[C@H](Cc2c[nH]c3ccccc23)N(C)C(=O)[C@H](C(C)C)NC(=O)[C@H](Cc2cccc(Cl)c2)N(C)C(=O)[C@H](C(C)C)NC(=O)[C@H](C)NC(=O)CSC[C@@H](C(N)=O)NC(=O)[C@H](Cc2ccc(O)cc2)N(C)C(=O)[C@H](Cc2ccccc2)NC(=O)[C@@H](CCCNC(=N)N)NC(=O)[C@H](CCCNC(=N)N)NC(=O)[C@H]([C@@H](C)CC)NC1=O` [compound 318] ({CH2CO}-AV[NMePhe(3-Cl)]V[NMeW]NY[Phe(3,4-(OMe)2)]IIR[dR]F[NMeY]C-NH2; thioether N-15) was run?
The Kd was 1 to 100 nM.

Which Kd [2] does the source give for `CC[C@H](C)[C@@H]1NC(=O)[C@H](Cc2ccc(OC)cc2)NC(=O)[C@H](Cc2ccc(O)cc2)NC(=O)[C@H](CC(N)=O)NC(=O)[C@H](Cc2c[nH]c3ccccc23)N(C)C(=O)[C@H](C(C)C)NC(=O)[C@H](Cc2cccc(Cl)c2)N(C)C(=O)[C@H](CCC(=O)O)NC(=O)[C@H](C)NC(=O)CSC[C@@H](C(=O)NCC(=O)N[C@@H](CCCCN=[N+]=[N-])C(N)=O)NC(=O)[C@H](Cc2ccc(O)cc2)N(C)C(=O)[C@H](Cc2ccccc2)NC(=O)[C@@H](CCCNC(=N)N)NC(=O)[C@H](CCCNC(=N)N)NC(=O)[C@H](CCC(=O)O)NC1=O` [compound 224] ({CH2CO}-AE[NMePhe(3-Cl)]V[NMeW]NYY(Me)IER[dR]F[NMeY]CG[Lys(N3)]-NH2; thioether N-15) here?
Its Kd is 1 to 100 nM.

With `CC[C@H](C)[C@@H]1NC(=O)[C@H](Cc2ccc(OC)cc2)NC(=O)[C@H](Cc2ccc(O)cc2)NC(=O)[C@H](CC(N)=O)NC(=O)[C@H](Cc2c[nH]c3ccc(Cl)cc23)NC(=O)[C@H](C(C)C)NC(=O)[C@H](Cc2cccc(Cl)c2)N(C)C(=O)[C@H](C(C)C)NC(=O)[C@H](C)NC(=O)CSC[C@@H](C(N)=O)NC(=O)[C@H](Cc2ccc(O)cc2)N(C)C(=O)[C@H](Cc2ccccc2)NC(=O)[C@@H](CCCNC(=N)N)NC(=O)[C@H](CCCNC(=N)N)NC(=O)[C@H]([C@@H](C)CC)NC1=O` [compound 464] as the compound, how does the Kd (SPR, hTfR, class symbols A-D, read-out: KD) read?
Its Kd is > 1000 nM.

With `CC[C@H](C)[C@@H]1NC(=O)[C@H](Cc2ccc(OC)cc2)NC(=O)[C@H](Cc2ccc(O)cc2)NC(=O)[C@H](CC(N)=O)NC(=O)[C@H](Cc2c[nH]c3ccccc23)N(C)C(=O)[C@H](C(C)C)NC(=O)[C@H](Cc2cccc(Cl)c2)N(C)C(=O)[C@H](C(C)C)NC(=O)[C@H](C)N(C)C(=O)CSC[C@@H](C(N)=O)NC(=O)[C@H](Cc2ccc(O)cc2)N(C)C(=O)[C@H](Cc2ccccc2)NC(=O)[C@@H](CCCNC(=N)N)NC(=O)[C@H](CCCNC(=N)N)NC(=O)[C@H]([C@@H](C)CC)NC1=O` [compound 215] as the compound, how does the Kd [2] read?
Its Kd is 1 to 100 nM.

Which Kd (surface plasmon resonance, hTfR, read-out: KD value for hTfR by SPR (class symbol)) does the source give for `CC[C@H](C)[C@@H]1NC(=O)[C@H](Cc2ccc(O)cc2)NC(=O)[C@H](Cc2ccc(O)cc2)NC(=O)[C@H](CC(N)=O)NC(=O)[C@H](Cc2c[nH]c3ccccc23)N(C)C(=O)[C@H](C(C)C)NC(=O)[C@H](Cc2cccc(Cl)c2)N(C)C(=O)[C@@H]2CCCC(=O)NCCCCC[C@H](NC(=O)[C@H]([C@@H](C)CC)NC1=O)C(=O)N[C@@H](CCCNC(=N)N)C(=O)N[C@@H](Cc1ccc(O)cc1)C(=O)N(C)[C@@H](Cc1ccc(O)cc1)C(=O)N[C@H](C(N)=O)CSCC(=O)N[C@@H](C)C(=O)N2` [compound 410] here?
The Kd was 1 to 100 nM.

How did the Kd (hTfR binding by SPR, hTfR No. 894 variant peptides, linker-added peptides and payload conjugates (Table 2), read-out: KD value obtained from the SPR measurement) turn out when `CC[C@H](C)[C@@H]1NC(=O)[C@H](Cc2ccc(O)cc2)NC(=O)[C@H](Cc2ccc(O)cc2)NC(=O)[C@H](CC(N)=O)NC(=O)[C@H](Cc2c[nH]c3ccccc23)NC(=O)[C@H](C(C)C)NC(=O)[C@H](Cc2ccccc2)N(C)C(=O)[C@H](C(C)C)NC(=O)[C@H](C)NC(=O)CSC[C@@H](C(=O)NCC(=O)NCC(=O)NCC(=O)N[C@@H](CO)C(=O)N[C@@H](CO)C(=O)N[C@@H](CCCCNC(=O)C2CCC(CN3C(=O)C=CC3=O)CC2)C(N)=O)NC(=O)[C@H](Cc2ccc(O)cc2)N(C)C(=O)[C@H](Cc2ccc(O)cc2)NC(=O)[C@H](CCCNC(=N)N)NC(=O)[C@H](CCCNC(=N)N)NC(=O)[C@H]([C@@H](C)CC)NC1=O` (some centres unmarked) [compound 187] was run?
Its Kd is 1 to 100 nM.

With `CC[C@H](C)[C@@H]1NC(=O)[C@H](Cc2ccc(O)cc2)NC(=O)[C@H](Cc2ccccc2)NC(=O)[C@H](CC(N)=O)NC(=O)[C@H](Cc2c[nH]c3ccccc23)NC(=O)[C@H](C(C)C)NC(=O)[C@H](Cc2ccccc2)N(C)C(=O)[C@H](C(C)C)NC(=O)[C@H](C)NC(=O)CSC[C@@H](C(=O)NCCOCCOCCOCCOCCOCCOCCOCCOCCOCCOCCOCCOCCC(N)=O)NC(=O)[C@H](Cc2ccc(O)cc2)N(C)C(=O)[C@H](Cc2ccc(O)cc2)NC(=O)[C@H](CCCNC(=N)N)NC(=O)[C@H](CCCNC(=N)N)NC(=O)[C@H]([C@@H](C)CC)NC1=O` [compound 135] ({CH2CO}-AV[NMeF]VWNFYIIRRY[NMeY]C[PEG12]-NH2; thioether N-15) as the compound, how does the Kd [3] read?
Its Kd is 1 to 100 nM.

How did the Kd [2] turn out when `CC[C@H](C)[C@@H]1NC(=O)[C@H](Cc2ccccc2)NC(=O)[C@H](Cc2ccc(O)cc2)NC(=O)[C@H](CC(N)=O)NC(=O)[C@H](Cc2c[nH]c3ccccc23)NC(=O)[C@H](C(C)C)NC(=O)[C@H](Cc2c[nH]c3ccccc23)NC(=O)[C@H](C(C)C)NC(=O)[C@H](C)NC(=O)CSC[C@@H](C(=O)NCCOCCOCCOCCOCCOCCOCCOCCOCCOCCOCCOCCOCCC(=O)N[C@@H](CCCCNC(=O)c2ccc(-c3c4ccc(=O)cc-4oc4cc(O)ccc34)c(C(=O)O)c2)C(N)=O)NC(=O)[C@H](Cc2c[nH]cn2)NC(=O)[C@H](CCCNC(=N)N)NC(=O)[C@@H]2CCCN2C(=O)[C@H]([C@@H](C)CC)NC1=O` [compound 208] ({CH2CO}-AVWVWNYFIIPRHC[PEG12]K(X2)-NH2; thioether N-14) was run?
Its Kd is 1 to 100 nM.

How did the Kd [2] turn out when `CC[C@H](C)[C@@H]1NC(=O)[C@H](Cc2ccc(O)cc2)NC(=O)[C@H](Cc2ccc(O)cc2)NC(=O)[C@H](CC(N)=O)NC(=O)[C@H](Cc2c[nH]c3ccccc23)NC(=O)[C@H](C(C)C)NC(=O)[C@H](Cc2ccccc2)NC(=O)[C@H](C(C)C)NC(=O)[C@H](C)NC(=O)CSC[C@@H](C(=O)NCCOCCOCCOCCOCCOCCOCCOCCOCCOCCOCCOCCOCCC(=O)N[C@@H](CCCCNC(=O)c2ccc(-c3c4ccc(=O)cc-4oc4cc(O)ccc34)c(C(=O)O)c2)C(N)=O)NC(=O)[C@H](Cc2c[nH]c3ccccc23)N(C)C(=O)[C@H](CCCNC(=N)N)NC(=O)[C@@H]2CCCN2C(=O)[C@H](C(C)C)NC1=O` [compound 210] ({CH2CO}-AVFVWNYYIVPR[NMeW]C[PEG12]K(X2)-NH2; thioether N-14) was run?
The Kd was 1 to 100 nM.

With `CC[C@H](C)[C@@H]1NC(=O)[C@H](Cc2ccc(O)cc2)NC(=O)[C@H](Cc2ccc(O)cc2)NC(=O)[C@H](CC(N)=O)NC(=O)[C@H](Cc2c[nH]c3ccccc23)NC(=O)[C@H](C(C)C)NC(=O)[C@H](Cc2ccccc2)N(C)C(=O)[C@H](C(C)C)NC(=O)[C@H](C)NC(=O)CSC[C@@H](C(N)=O)NC(=O)[C@H](Cc2ccc(O)cc2)N(C)C(=O)[C@H](Cc2ccc(O)cc2)NC(=O)[C@H](CCCNC(=N)N)NC(=O)[C@H](CCCCN)NC(=O)[C@H]([C@@H](C)CC)NC1=O` [compound 293] as the compound, how does the Kd [1] read?
Its Kd is 1 to 100 nM.

For `CC[C@H](C)[C@@H]1NC(=O)[C@H](Cc2ccc(O)cc2)NC(=O)[C@H](Cc2ccc(O)cc2)NC(=O)[C@H](CC(N)=O)NC(=O)[C@H](Cc2c[nH]c3ccccc23)NC(=O)[C@H](C(C)C)NC(=O)[C@H](Cc2ccccc2)N(C)C(=O)[C@H](Cc2ccccc2)NC(=O)[C@H](C)NC(=O)CSC[C@@H](C(=O)NCCOCCOCCOCCOCCOCCOCCOCCOCCOCCOCCOCCOCCC(N)=O)NC(=O)[C@H](Cc2ccc(O)cc2)N(C)C(=O)[C@H](Cc2ccc(O)cc2)NC(=O)[C@H](CCCNC(=N)N)NC(=O)[C@H](CCCNC(=N)N)NC(=O)[C@H]([C@@H](C)CC)NC1=O` [compound 133] ({CH2CO}-AF[NMeF]VWNYYIIRRY[NMeY]C[PEG12]-NH2; thioether N-15), which Kd [3] is on record?
Its Kd is 1 to 100 nM.
